Holding throughout (type): biochemical
The target in experiment [1] is Human LOXL2 (Homo sapiens (Human), UniProt Q9Y4K0). The experiment in a line: LOXL2 inhibition, peroxidase-coupled Amplex Red amine oxidase assay. Particulars: 30 min preincubation at 37° C., putrescine substrate. The text has this: (§1) Method to Determine the Ability of Compounds of the Invention to Inhibit LOX and LOXL1-4 from Different Sources
(§2) Lysyl oxidase (LOX) is an extracellular copper dependent enzyme which oxidizes peptidyl lysine and hydroxylysine residues in collagen and lysine residues in elastin to produce peptidyl alpha-aminoadipic-delta-semialdehydes. […] There are five LOX family members; these are LOX, LOXL1, LOXL2, LOXL3 and LOXL4. LOX and LOXL family members can be acquired as recombinant active proteins from commercial sources, or extracted from animal tissues like bovine aorta, tendons, pig skin; or prepared from cell cultures. The inhibitory effects of the compounds of the present invention were tested against the given LOX-LOXL preparation using a high-throughput coupled colorimetric method (Holt A. and Palcic M., A peroxidase-coupled continuous absorbance plate-reader assay for flavin monoamine oxidases, copper-containing amine oxidases and related enzymes. Nat. Protoc. 2006; 1: 2498-2505). The assay was developed using either 384 or 96 well format. Briefly, in a standard 384 well plate assay 25 μL of a dilution of any of the isoenzymes and orthologues in 1.2 M urea, 50 mM sodium borate buffer (pH 8.2) were added into each well in the presence of 1 μM mofegiline and 0.5 mM pargyline (to inhibit SSAO and MAO-B and MAO-A, respectively). Test compounds were dissolved in DMSO and tested in a Concentration Response Curve (CRC) with 11 data points, typically in the micromolar or nanomolar range after incubation with the enzyme for 30 min at 37° C. Twenty five μL of a reaction mixture containing twice the KM concentration of putrescine (Sigma Aldrich, e.g. 20 mM for LOX, or 10 mM for LOXL2 and LOXL3), 120 μM Amplex Red (Sigma Aldrich) and 1.5 U/mL horseradish peroxidase (Sigma Aldrich) prepared in 1.2 M urea, 50 mM sodium borate buffer (pH 8.2) were then added to the corresponding wells. The above volumes were doubled in the case of 96 wells plate. The fluorescence (RFU) was read every 2.5 min for 30 min at a range of temperatures from 37° to 45° C., excitation 565 nm and emission 590 (Optima; BMG labtech). The slope of the kinetics for each well was calculated using MARS data analysis software (BMG labtech) and this value was used to deduce the IC50 value (Dotmatics).

The target of experiment [2] is Human recombinant SSAO/VAP-1 (Homo sapiens (Human), UniProt Q16853). The experiment in a line: Human recombinant SSAO/VAP-1 amine oxidase inhibition. The settings on record: 30 min preincubation at 37° C., 600 μM benzylamine. The procedure: Method to Determine the Ability of Compounds of Formula I to Inhibit Human Recombinant SSAO/VAP-1
Sequence of Human recombinant SSAO/VAP-1 (Q16853 34-763): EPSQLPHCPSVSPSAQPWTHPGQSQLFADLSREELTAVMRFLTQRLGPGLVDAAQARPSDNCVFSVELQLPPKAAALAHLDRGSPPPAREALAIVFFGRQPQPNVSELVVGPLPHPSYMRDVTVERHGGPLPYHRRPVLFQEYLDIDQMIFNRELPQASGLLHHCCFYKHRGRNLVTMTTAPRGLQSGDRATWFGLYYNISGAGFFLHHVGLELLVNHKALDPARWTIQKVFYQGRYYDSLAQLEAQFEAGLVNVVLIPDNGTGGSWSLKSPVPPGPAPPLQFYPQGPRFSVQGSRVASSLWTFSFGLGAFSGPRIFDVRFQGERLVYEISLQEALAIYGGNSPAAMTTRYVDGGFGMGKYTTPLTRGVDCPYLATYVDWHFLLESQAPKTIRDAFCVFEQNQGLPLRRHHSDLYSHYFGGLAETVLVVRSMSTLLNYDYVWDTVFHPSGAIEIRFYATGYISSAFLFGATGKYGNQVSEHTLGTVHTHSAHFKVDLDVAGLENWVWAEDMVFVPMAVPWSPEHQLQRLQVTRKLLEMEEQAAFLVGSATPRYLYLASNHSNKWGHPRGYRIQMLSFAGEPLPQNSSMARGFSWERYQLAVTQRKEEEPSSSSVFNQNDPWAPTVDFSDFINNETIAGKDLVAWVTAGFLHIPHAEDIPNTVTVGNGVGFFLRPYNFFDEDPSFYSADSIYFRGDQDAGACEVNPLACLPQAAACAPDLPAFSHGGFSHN
Human recombinant SSAO/VAP-1 amine oxidase activity was determined using the coupled colorimetric method as described for monoamine oxidase, copper-containing amine oxidases and related enzymes (Holt A. and Palcic M., A peroxidase-coupled continuous absorbance plate-reader assay for flavin monoamine oxidases, copper-containing amine oxidases and related enzymes. Nat Protoc 2006; 1: 2498-2505). Briefly, a cloned cDNA template corresponding to residues 34-763 of human SSAO/VAP-1, and incorporating a mouse Ig kappa (κ) signal sequence, N-terminal flag epitope tag and tobacco etch virus (TEV) cleavage site, was assembled in a mammalian expression vector (pLO-CMV) by Geneart AG. This vector containing human SSAO/VAP-1 residues was transfected into CHO-K1 glycosylation mutant cell line, Lec 8. A clone stably expressing human SSAO/VAP-1 was isolated and cultured in large scale. Active human SSAO/VAP-1 was purified and recovered using immunoaffinity chromatography. This was used as the source for SSAO/VAP-1 activity. A high-throughput colorimetric assay was developed using either 96 or 384 well format. Briefly, in a standard 96 well plate assay 50 μL of purified human SSAO/VAP-1 (0.25 μg/mL) in 0.1 M sodium phosphate buffer (pH 7.4) was added into each well. Test compounds were dissolved in DMSO and tested in a Concentration Response Curve (CRC) with 4-11 data points, typically in the micromolar or nanomolar range after incubation with human SSAO/VAP-1 for 30 min at 37° C. After 30 min incubation, 50 μL of the reaction mixture containing 600 μM benzylamine (Sigma Aldrich), 120 μM Amplex Red (Sigma Aldrich) and 1.5 U/mL horseradish peroxidase (Sigma Aldrich) prepared in 0.1 M sodium phosphate buffer (pH 7.4) were added to the corresponding well. The fluorescence unit (RFU) was read every 2.5 min for 30 min at 37° C. excitation 565 nm and emission 590 (Optima; BMG labtech). The slope of the kinetics for each well was calculated using MARS data analysis software (BMG labtech) and this value was used to deduce the IC50 value (Dotmatics).

For experiment [3], the target named is Recombinant human MAO-B (Homo sapiens (Human), UniProt P27338). The experiment is described as follows: Human recombinant MAO-B inhibition. The settings on record: benzylamine 100 μM. The procedure: Method to Determine the Ability of Compounds of Formula I to Inhibit Human Recombinant MAO-B
Sequence of Recombinant human MAO-B (P27338 whole entry): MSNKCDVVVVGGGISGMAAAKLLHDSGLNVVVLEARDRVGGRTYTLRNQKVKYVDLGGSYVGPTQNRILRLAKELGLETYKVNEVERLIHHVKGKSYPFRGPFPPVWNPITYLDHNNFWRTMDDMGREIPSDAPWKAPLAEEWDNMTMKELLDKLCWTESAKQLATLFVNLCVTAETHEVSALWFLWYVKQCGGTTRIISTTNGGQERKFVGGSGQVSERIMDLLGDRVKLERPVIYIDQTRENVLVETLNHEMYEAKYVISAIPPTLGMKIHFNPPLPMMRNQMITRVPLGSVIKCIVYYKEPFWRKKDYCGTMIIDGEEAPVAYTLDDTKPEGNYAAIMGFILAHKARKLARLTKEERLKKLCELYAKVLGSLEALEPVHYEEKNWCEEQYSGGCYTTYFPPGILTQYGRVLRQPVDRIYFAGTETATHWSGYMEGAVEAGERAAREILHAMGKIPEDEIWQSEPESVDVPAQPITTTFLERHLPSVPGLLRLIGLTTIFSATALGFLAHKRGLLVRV
The specificity of the compounds of this invention was tested by determining their ability to inhibit MAO-B activities in vitro. Recombinant human MAO-B (0.06 mg/mL; Sigma Aldrich) was used as source of MAO-B enzyme activities. The assay was performed in a similar way as for human SSAO/VAP-1 (Example 36) except, the substrate benzylamine was used at 100 μM.

In experiment [4] the target is Bovine LOX (Bos taurus (Bovine), UniProt P33072). The experiment is described as follows: LOX inhibition, peroxidase-coupled Amplex Red amine oxidase assay. Particulars: 30 min preincubation at 37° C., putrescine substrate.
Sequence of Bovine LOX (P33072 170-418): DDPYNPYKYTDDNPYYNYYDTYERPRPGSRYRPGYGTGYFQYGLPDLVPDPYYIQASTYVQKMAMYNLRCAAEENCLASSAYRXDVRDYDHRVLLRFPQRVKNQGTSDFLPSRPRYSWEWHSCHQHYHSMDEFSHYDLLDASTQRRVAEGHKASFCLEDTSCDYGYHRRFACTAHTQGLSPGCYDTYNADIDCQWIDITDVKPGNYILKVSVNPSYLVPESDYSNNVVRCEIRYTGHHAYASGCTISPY
Description: as §1
as §2, with “Test compounds were dissolved in DMSO and tested in a Concentration Response Curve (CRC) with 11 data points, typically in the micromolar or nanomolar range after incubation with the enzyme for 30 min at 37° C.” left out

SMILES strings stand for the structures. Counter-ions that a name gives are not always drawn.

Sequence of Human LOXL2 (Q9Y4K0 26-774): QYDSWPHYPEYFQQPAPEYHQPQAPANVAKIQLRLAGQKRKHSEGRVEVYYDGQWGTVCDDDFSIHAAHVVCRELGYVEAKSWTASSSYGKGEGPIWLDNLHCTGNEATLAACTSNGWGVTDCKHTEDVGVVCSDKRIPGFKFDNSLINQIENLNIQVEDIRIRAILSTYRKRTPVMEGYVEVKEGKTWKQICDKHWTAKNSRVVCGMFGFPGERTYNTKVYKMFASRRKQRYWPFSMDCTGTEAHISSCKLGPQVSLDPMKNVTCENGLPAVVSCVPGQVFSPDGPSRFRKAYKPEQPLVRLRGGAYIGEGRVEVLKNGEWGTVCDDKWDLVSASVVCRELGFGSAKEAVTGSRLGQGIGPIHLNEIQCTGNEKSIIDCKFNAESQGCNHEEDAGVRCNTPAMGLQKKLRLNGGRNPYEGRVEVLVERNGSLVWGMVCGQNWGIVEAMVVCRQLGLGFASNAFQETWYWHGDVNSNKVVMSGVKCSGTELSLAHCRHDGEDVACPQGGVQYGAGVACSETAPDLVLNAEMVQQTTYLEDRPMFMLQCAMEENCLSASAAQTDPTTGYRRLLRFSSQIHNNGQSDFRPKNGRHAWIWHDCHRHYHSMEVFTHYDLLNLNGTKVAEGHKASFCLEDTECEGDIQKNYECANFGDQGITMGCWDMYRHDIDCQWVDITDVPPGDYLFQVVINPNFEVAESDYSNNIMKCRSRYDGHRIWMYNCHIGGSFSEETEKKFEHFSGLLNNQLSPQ

As to `Cc1c(Cc2ccc(S(=O)(=O)N(C)C)cc2)c2ncc(F)cc2n1C/C(F)=C/CN` [Compound 24, (Z)-4-((1-(4-amino-2-fluorobut-2-en-1-yl)-6-fluoro-2-methyl-1H-pyrrolo[3,2-b]pyridin-3-yl)methyl)-N,N-dimethylbenzenesulfonamide dihydrochloride], the IC50 in experiment [1] is less than 300 nM; in experiment [2] it was greater than 3000 nM; in experiment [3], greater than 3000 nM; in experiment [4] it was greater than 300 nM.

For the compound `CN(C)S(=O)(=O)c1ccc(Cc2c(C(C)(C)O)n(C/C(F)=C/CN)c3cccnc23)cc1` [Compound 25, (Z)-4-((1-(4-amino-2-fluorobut-2-en-1-yl)-2-(2-hydroxypropan-2-yl)-1H-pyrrolo[3,2-b]pyridin-3-yl)methyl)-N,N-dimethylbenzenesulfonamide dihydrochloride], the 50% inhibitory concentration (IC50) is less than 300 nM in experiment [1], greater than 3000 nM in experiment [2], greater than 3000 nM in experiment [3] and greater than 300 nM in experiment [4].

For the compound `Cc1c(Cc2ccc(S(=O)(=O)N(C)C)cc2)c2ccccc2n1C/C(F)=C/CN` [Compound 26, (Z)-4-((1-(4-amino-2-fluorobut-2-en-1-yl)-2-methyl-1H-indol-3-yl)methyl)-N,N-dimethylbenzene-sulfonamide hydrochloride], the IC50 was less than 300 nM in experiment [1], greater than 3000 nM in experiment [2], greater than 3000 nM in experiment [3] and greater than 300 nM in experiment [4].

For `Cc1c(Cc2ccc(S(C)(=O)=O)nc2)c2nc(C3CC3)ccc2n1C/C(F)=C/CN` [Compound 27, (Z)-4-(5-cyclopropyl-2-methyl-3-((6-(methylsulfonyl)pyridin-3-yl)methyl)-1H-pyrrolo[3,2-b]pyridin-1-yl)-3-fluorobut-2-en-1-amine trihydrochloride], the IC50 in experiment [1] is less than 300 nM; in experiment [2], greater than 3000 nM; in experiment [3], greater than 3000 nM; in experiment [4], greater than 300 nM.

For the compound `Cc1c(Cc2ccc(S(=O)(=O)N(C)C)cc2)c2nc(C(C)(C)O)ccc2n1C/C(F)=C/CN` [Compound 28, (Z)-4-((1-(4-amino-2-fluorobut-2-en-1-yl)-5-(2-hydroxypropan-2-yl)-2-methyl-1H-pyrrolo[3,2-b]pyridin-3-yl)methyl)-N,N-dimethylbenzenesulfonamide dihydrochloride], the IC50 in experiment [1] is less than 300 nM; in experiment [2], greater than 3000 nM; in experiment [3] it was greater than 3000 nM; in experiment [4], greater than 300 nM.

Take `CC(O)c1c(Cc2ccc(S(=O)(=O)N(C)C)cc2)c2ncccc2n1C/C(F)=C/CN` (centres unmarked) [Compound 29, (Z)-4-((1-(4-amino-2-fluorobut-2-en-1-yl)-2-(1-hydroxyethyl)-1H-pyrrolo[3,2-b]pyridin-3-yl)methyl)-N,N-dimethylbenzenesulfonamide dihydrochloride]: the half-inhibitory concentration (IC50) in experiment [1] was less than 300 nM; in experiment [2], greater than 3000 nM; in experiment [3], greater than 3000 nM; in experiment [4] it was greater than 300 nM.

For the compound `Cc1c(Cc2ccc(S(C)(=O)=O)nc2)c2nc(C(C)(F)F)ccc2n1C/C(F)=C/CN` [Compound 30, (Z)-4-(5-(1,1-difluoroethyl)-2-methyl-3-((6-(methylsulfonyl)pyridin-3-yl)methyl)-1H-pyrrolo[3,2-b]pyridin-1-yl)-3-fluorobut-2-en-1-amine trihydrochloride], the 50% inhibitory concentration (IC50) is less than 300 nM in experiment [1], greater than 3000 nM in experiment [2], greater than 3000 nM in experiment [3] and greater than 300 nM in experiment [4].

Take `Cc1c(Cc2ccc(S(C)(=O)=O)nc2)c2nc(C(F)(F)F)ccc2n1C/C(F)=C/CN` [Compound 31, (Z)-3-fluoro-4-(2-methyl-3-((6-(methylsulfonyl)pyridin-3-yl)methyl)-5-(trifluoromethyl)-1H-pyrrolo[3,2-b]pyridin-1-yl)but-2-en-1-amine trihydrochloride]: the concentration for half-maximal inhibition (IC50) was less than 300 nM in experiment [1], greater than 3000 nM in experiment [2], greater than 3000 nM in experiment [3] and greater than 300 nM in experiment [4].

In the case of `Cc1c(Cc2ccc(S(=O)(=O)N(C)C)cc2)c2cnccc2n1C/C(F)=C/CN` [Compound 32, (Z)-4-((1-(4-amino-2-fluorobut-2-en-1-yl)-2-methyl-1H-pyrrolo[3,2-c]pyridin-3-yl)methyl)-N,N-dimethylbenzenesulfonamide dihydrochloride], the IC50 is less than 300 nM in experiment [1], greater than 3000 nM in experiment [2], greater than 3000 nM in experiment [3] and greater than 300 nM in experiment [4].

Turning to `CC(C)c1c(Cc2ccc(S(C)(=O)=O)cc2)c2ncccc2n1C/C(F)=C/CN` [Compound 33, (Z)-3-fluoro-4-(2-isopropyl-3-(4-(methylsulfonyl)benzyl)-1H-pyrrolo[3,2-b]pyridin-1-yl)but-2-en-1-amine dihydrochloride], the IC50 in experiment [1] was less than 300 nM; in experiment [2] it was greater than 3000 nM; in experiment [3] it was greater than 3000 nM; in experiment [4], greater than 300 nM.

On to `Cc1cc(S(C)(=O)=O)ccc1Cc1c(C)n(C/C(F)=C/CN)c2cccnc12` [Compound 34, (Z)-3-fluoro-4-(2-methyl-3-(2-methyl-4-(methylsulfonyl)benzyl)-1H-pyrrolo[3,2-b]pyridin-1-yl)but-2-en-1-amine dihydrochloride], for which the half-maximal inhibitory concentration (IC50) in experiment [1] is less than 300 nM; in experiment [2], greater than 3000 nM; in experiment [3], greater than 3000 nM; in experiment [4], greater than 300 nM.
